Tests used:
[1] = target: T1, Recombinant human His-MEK2 (Homo sapiens, UniProt P36507); experiment: SPR (Biacore T200) on immobilised His-MEK2; assay type: binding; settings: 15° C.; 20 mM HEPES, 150 mM NaCl, 5% DMSO pH 7.4
T1 construct: purchased ThermoFisher Scientific PV3615
Description: (§1) SPR. SPR was performed on a Biacore T200. The active and reference flow cells of a Xantec NIHMC Ni sensor chip were conditioned with 0.5M NaEDTA followed by 5 mM NiCl2 in immobilisation buffer (20 mM HEPES, 150 mM NaCl, pH 7.4). Recombinant human His-MEK1 and His-MEK2 (500 nM, ThermoFisher Scientific, cat. PV3303 and PV3615, respectively) were injected for 15 min at 10 μl min^−1 over separate active flow cells. All immobilisation was carried out at 25° C. Following immobilisation, the temperature was lowered to 15° C., and the buffer changed to 20 mM HEPES, 150 mM NaCl, 5% DMSO pH 7.4. Samples of PD98059 (2.5-30 μM in running buffer) and BT2 (1.25-15 μM) were injected at a flow rate of 30 μl min^−1 over immobilised MEK1 and MEK2. Solvent correction was applied to the data using a DMSO standard curve. Data were analysed using the Biacore T200 Evaluation software. Prior to SPR, limits of compound solubility were determined using ^1H 1D NMR.

[2] = Solubility on dilution in medium containing serum; assay type: physicochemical
[3] = target: T2, Recombinant human His-MEK1 (Homo sapiens, UniProt Q02750); experiment: SPR (Biacore T200) on immobilised His-MEK1; assay type: binding; settings: 15° C.; 20 mM HEPES, 150 mM NaCl, 5% DMSO pH 7.4
T2 construct: purchased ThermoFisher Scientific PV3303
Description: as §1

[4] = system: HY79b pigmented rabbits; experiment: Rabbit retinal vascular hyperpermeability model induced by rhVEGF-A165; assay type: in vivo
Description: Rabbit retinal vascular hyperpermeability model. Male HY79b pigmented rabbits (8-12 week-old) were anesthetized by an intramuscular injection of Rompun® (xylazine)/Imalgene® (ketamine). Compound (600 μg BT2, BT3 or saline vehicle containing 0.5% Tween 80 and 10% DMSO vehicle in 100 μl) was injected into the right eye 5d prior to rhVEGF-A165 induction. Injections were performed on anesthetized animals under an operating microscope using a 250 μl Hamilton syringe (fitted with 30G needle). Retinal vascular permeability was induced by a single 50 μl IVT injection of 500 ng rhVEGF-A165 (diluted in PBS with carrier protein) into the right eye. Forty-seven hours (+/−3 h) after induction, sodium fluorescein (10% in saline, 50 mg/kg) was injected into the marginal ear vein. One hour after fluorescein injection, animals were anaesthetized and pupils were dilated by instillation of one drop of 0.5% tropicamide. Ocular fluorescence in both eyes was measured with a FM-2 Fluorotron Master ocular fluorophotometer. Animals were euthanized by injection of pentobarbital.

[5] = system: FosB/ΔFosB; experiment: Western blot, serum-inducible FosB/ΔFosB expression in HMEC-1; assay type: cell-based, human; settings: 30 μM compound, 10% FBS 1 h
Description: Western blot analysis with extracts of cells treated with serum. HMEC-1 (80-90% confluency) were arrested in serum-free MCDB131 medium without EGF or hydrocortisone for 20 h. Cells were treated with 30 μM compound in serum-free MCDB131 medium for 4 h, and the medium was changed to complete medium (with 10% FBS with EGF and hydrocortisone) with 30 μM compound for 1 h. Total protein was harvested as previously described in radioimmunoprecipitation (RIPA) lysis buffer with protease inhibitors (Li, Y., et al., Int J Cardiol 220, 185-191 (2016)). Proteins were resolved on 4-20% (w/v) sodium dodecyl sulfate (SDS)-polyacrylamide gradient gels (Bio-Rad Mini-PROTEAN TGX) and transferred to Immobilon-P PVDF membranes (Millipore, USA). Membranes were blocked with 5% skim milk and incubated with rabbit monoclonal FosB (cat. 2251, 1:1000, Cell Signaling, USA), rabbit monoclonal c-Fos antibodies (cat. 2250, 1:1000, Cell Signaling, USA) at 4° C. overnight or mouse monoclonal […] antibodies (cat. A5316, 1:30000, Sigma-Aldrich) at 22° C. for 15 min then incubated with a horseradish peroxidase conjugated secondary goat anti-rabbit (cat. P0448, 1:1000, DAKO Cytomation, Denmark) or goat anti-mouse (cat. P0447, 1:1000, DAKO Cytomation, Denmark) antibodies for 1 h. Chemiluminescence was detected using the Western Lightning Chemiluminescence system (PerkinElmer, USA) and ImageQuant™ LAS 4000 biomolecular imager (GE Healthcare Life Sciences, USA). Band intensity in images generated with the LAS 4000 on automatic exposure with sensitivity/resolution setting high was quantified using NIH ImageJ.

[6] = system: HMEC-1; experiment: Endothelial proliferation assay using the xCELLigence system; assay type: cell-based, human; settings: for serum-inducible endothelial proliferation (xCELLigence cell index): HMEC-1, 5% FBS, 0.2-1 μM, 79 h
Description: Endothelial proliferation assay using the xCELLigence system. HMEC-1 proliferation was evaluated using the xCELLigence System (Roche, Castle Hill). Briefly, HMEC-1 (5×10^3 cells/well) were seeded in a 96-well E-plate and inserted into the xCELLigence RTCA station (Roche). Cells were serum-deprived for 24 h in MCDB131 medium which contained 10 ng/ml EGF (Sigma-Aldrich) and 1 μg/ml hydrocortisone (Sigma-Aldrich) then treated with compound (0.2-1 μM) in medium containing 5% FBS, 10 ng/ml EGF (Sigma-Aldrich) and 1 μg/ml hydrocortisone (Sigma-Aldrich). Cell growth was monitored automatically every 15 min by xCELLigence system. Cell index (CI) represents a quantitative measure of each well cell growth. In this system, CI a unitless parameter that reports impedance of electron flow caused by adherent cells.

[7] = system: HMEC-1; experiment: Endothelial repair following in vitro injury (scratch assay); assay type: cell-based, human; settings: 0.6 μM, 5% FBS, 48 h
Description: Endothelial repair following in vitro injury. HMEC-1 (90-100% confluency) in 6-well plates were washed with PBS, and treated with 0.6 μM compound in MCDB131 containing 5% FBS. A sterile pointed toothpick was used to scrape the cell monolayer and the wells photographed under 4× objective at 0 h and 48 h. Cell regrowth in the denuded zone was determined using Image-Pro Plus (Cybernetics, USA).

T2 sequence (Q02750 whole entry): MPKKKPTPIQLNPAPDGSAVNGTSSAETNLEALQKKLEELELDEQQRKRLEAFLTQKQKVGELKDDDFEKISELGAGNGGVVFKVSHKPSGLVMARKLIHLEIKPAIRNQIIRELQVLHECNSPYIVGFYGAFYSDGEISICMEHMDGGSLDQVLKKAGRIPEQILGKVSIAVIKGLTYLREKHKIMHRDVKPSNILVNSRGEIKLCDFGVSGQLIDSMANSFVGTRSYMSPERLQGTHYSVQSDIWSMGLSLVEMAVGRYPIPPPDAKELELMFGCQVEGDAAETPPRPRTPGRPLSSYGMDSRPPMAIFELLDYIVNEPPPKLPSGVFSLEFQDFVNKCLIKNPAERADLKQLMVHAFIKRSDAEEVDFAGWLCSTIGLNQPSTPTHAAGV
T1 sequence (P36507 whole entry): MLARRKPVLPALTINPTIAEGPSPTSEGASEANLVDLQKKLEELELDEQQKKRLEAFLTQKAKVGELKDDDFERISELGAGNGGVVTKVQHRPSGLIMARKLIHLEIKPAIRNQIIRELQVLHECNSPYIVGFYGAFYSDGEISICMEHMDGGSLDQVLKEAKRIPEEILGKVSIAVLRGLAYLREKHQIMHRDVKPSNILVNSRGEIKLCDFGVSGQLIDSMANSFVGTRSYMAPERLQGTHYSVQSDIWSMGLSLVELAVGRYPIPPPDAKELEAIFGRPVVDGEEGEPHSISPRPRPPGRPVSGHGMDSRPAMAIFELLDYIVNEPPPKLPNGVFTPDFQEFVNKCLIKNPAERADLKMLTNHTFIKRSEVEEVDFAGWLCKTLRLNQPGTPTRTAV

CCOC(=O)Nc1ccc2c(c1)C(=O)N(CC)c1ccccc1O2 [BT2, (10-ethyl-11-oxo-10,11-dihydro-dibenzo[b,f][1,4]oxazepin-2-yl)-carbamic acid ethyl ester]
binding to His-MEK2 (SPR) [1]: bound to His-MEK1 significantly better than to His-MEK2
effect of serum in the diluent on solubility ([2]; adding serum to the diluent): increased BT2 solubility
binding to His-MEK1 (SPR) [3]: bound to His-MEK1 significantly better than to His-MEK2
inhibition of retinal leakage induced by rhVEGF-A165 ([4]; single IVT 600 μg, 5 d before induction, after 2 days): ~50%
serum-inducible FosB/ΔFosB expression (Western blot) [5]: blocked the inducible expression of FosB and ΔFosB
serum-inducible endothelial proliferation (xCELLigence cell index) [6]: inhibited serum-inducible proliferation at concentrations in a dose-dependent manner
biological activity of formulation after autoclaving ([6]; autoclaved (121° C., 15 psi, 20 min), 4 months storage at 22° C., 0.4, 0.8 μM): biologically active
biological efficacy of stored formulation ([6]; heat-treated or not, storage up to 16 months): no loss in biological efficacy
inhibition of serum-inducible endothelial proliferation by stored formulation ([6]; with or without 100° C. for 10 min, 6 weeks storage, 0.4, 0.8 μM): retained its ability to inhibit serum-inducible endothelial proliferation
endothelial regrowth after mechanical injury in vitro [7]: blocked this reparative response

CCN1C(=O)c2cc(N)ccc2Oc2ccccc21 [BT3, 2-amino-10-ethyldibenzo[b,f][1,4]oxazepin-11 (10H)-one]
binding to His-MEK2 (SPR) [1]: no appreciable binding
solubility relative to BT2 and analogues ([2]; dilution in medium containing serum): the most soluble of all these dibenzoxazepinones
binding to His-MEK1 (SPR) [3]: no appreciable binding
effect on retinal vascular leakage induced by rhVEGF-A165 ([4]; IVT 600 μg, fluorescence ratio R/L): inactive
serum-inducible FosB/ΔFosB expression (Western blot) [5]: no inhibition
serum-inducible endothelial proliferation (xCELLigence cell index) [6]: no inhibitory effect
endothelial regrowth after mechanical injury in vitro [7]: no such effect
